pIC50: −log10 of the molar value.

For the experiment, the target named is T1, GID4 (Uniprot ID: Q81VV7, residues 124-289) (Homo sapiens, UniProt Q8IVV7).
T1 construct: GID4 (Uniprot ID: Q81VV7, residues 124-289)
T1 sequence (Q8IVV7 124-289): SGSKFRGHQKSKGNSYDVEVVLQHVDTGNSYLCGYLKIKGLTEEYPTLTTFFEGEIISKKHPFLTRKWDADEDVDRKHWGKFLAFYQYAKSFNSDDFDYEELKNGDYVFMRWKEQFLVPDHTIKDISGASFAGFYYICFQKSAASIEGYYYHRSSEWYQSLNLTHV
Put plainly: GID4 competitive binding assay (AlphaScreen, GID4/degron peptide PGLW). The following applies: 24 nM GID4, 48 nM biotinylated degron peptide PGLW, 4° C., read-out: IC50 (Inhibition of GID4/Degron binding by test compounds). The gist of the method: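 Displacement of biotin-tagged degron tetrapeptide PGLW (48 nM) from C-terminally 6His-tagged GID4 124-289 (24 nM) read by AlphaScreen proximity signal. Compound incubation 2 h, then beads 1 h, all at 4 °C, pH 7.5, 2% DMSO final; background-corrected inhibition fitted with variable slope for IC50.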
A general note: Bead proximity is the source of the signal in Alpha formats.
As for `Nc1cc(N2CCOC(c3ccccc3Br)C2)nc(N)n1` (single isomer, unassigned) [Compound 146, (S/R)-6-(2-(2-bromophenyl)morpholino)pyrimidine-2,4-diamine], the pIC50 is > 6.30.

With `CC(C)c1cc(N2CCCC(c3cnc4ccccn34)C2)ncn1` (single isomer, unassigned) [Compound 149, (S/R)-3-(1-(6-isopropylpyrimidin-4-yl)piperidin-3-yl)imidazo[1,2-a]pyridine], the pIC50 is < 5.30.

Take `CC(C)Nc1nc(C(C)C)cc(N2CCNC(c3ccccc3Br)C2)n1` (single isomer, unassigned) [Compound 150, (S/R)-4-(3-(2-bromophenyl)piperazin-1-yl)-N,6-diisopropylpyrimidin-2-amine]: the pIC50 was < 5.30.

For the compound `CC(C)Nc1nc(C(C)C)cc(N2CCNC(c3ccccc3Br)C2)n1` (single isomer, unassigned) [Compound 151, (R/S)-4-(3-(2-bromophenyl)piperazin-1-yl)-N,6-diisopropylpyrimidin-2-amine], the pIC50 is < 5.30.

As to `CNc1nc(C(C)C)cc(N2CCNC(c3ccccc3Br)C2)n1` (single isomer, unassigned) [Compound 152, (R/S)-4-(3-(2-bromophenyl)piperazin-1-yl)-6-isopropyl-N-methylpyrimidin-2-amine], the pIC50 was 5.30 to 6.30.

Turning to `CNc1nc(C(C)C)cc(N2CCNC(c3ccccc3Br)C2)n1` (single isomer, unassigned) [Compound 153, R or S-4-(3-(2-bromophenyl)piperazin-1-yl)-6-isopropyl-N-methylpyrimidin-2-amine], the pIC50 was 5.30 to 6.30.

Take `CC(C)c1cc(N2CCOC(c3cnc4ccccn34)C2)nc(N)n1` (single isomer, unassigned) [Compound 157, (S/R)-4-(2-(imidazo[1,2-a]pyridin-3-yl)morpholino)-6-isopropylpyrimidin-2-amine]: the pIC50 was < 5.30.

Regarding `CC(C)c1cc(N2CCOC(c3ccccc3Br)C2)nc(N)n1` (single isomer, unassigned) [Compound 159, (S/R)-4-(2-(2-bromophenyl)morpholino)-6-isopropylpyrimidin-2-amine], the pIC50 is 5.30 to 6.30.

As to `CC(C)c1cc(N2CCN(C)C(c3ccccc3Br)C2)nc(N)n1` (single isomer, unassigned) [Compound 160, (R/S)-4-(3-(2-bromophenyl)-4-methylpiperazin-1-yl)-6-isopropylpyrimidin-2-amine], the pIC50 is 5.30 to 6.30.

Consider `CC(C)c1cc(N2CCNC(c3cnc4ccccn34)C2)c2cc[nH]c2n1` (single isomer, unassigned) [Compound 372, (S/R)-3-(4-(6-isopropyl-1H-pyrrolo[2,3-b]pyridin-4-yl)piperazin-2-yl)imidazo[1,2-a]pyridine], for which the pIC50 is > 6.30.

With `Nc1cc(N2CCO[C@](CO)(c3ccccc3Br)C2)nc(N)n1` (stereo in doubt) [Compound 36, (R/S)-(2-(2-bromophenyl)-4-(2,6-diaminopyrimidin-4-yl)morpholin-2-yl)methanol], the pIC50 is < 5.30.

On to `Nc1cc(N2CCO[C@@](CO)(c3ccccc3Br)C2)nc(N)n1` (stereo in doubt) [Compound 37, (S/R)-(2-(2-bromophenyl)-4-(2,6-diaminopyrimidin-4-yl)morpholin-2-yl)methanol], for which the pIC50 is > 6.30.

Turning to `CC(=O)N1CCN(c2cc(N)nc(N)n2)C[C@@H]1c1ccccc1Br` (stereo in doubt) [Compound 59, (S/R)-1-(2-(2-bromophenyl)-4-(2,6-diaminopyrimidin-4-yl)piperazin-1-yl)ethan-1-one], the pIC50 is < 5.30.

For the compound `CC(=O)N1CCN(c2cc(N)nc(N)n2)C[C@H]1c1ccccc1Br` (stereo in doubt) [Compound 60, (R/S)-1-(2-(2-bromophenyl)-4-(2,6-diaminopyrimidin-4-yl)piperazin-1-yl)ethan-1-one], the pIC50 was < 5.30.

In the case of `Nc1nc(NC2CC2)nc(N2CCN[C@H](c3ccccc3Br)C2)n1` (stereo in doubt) [Compound 64, (R/S)-6-(3-(2-bromophenyl)piperazin-1-yl)-N2-cyclopropyl-1,3,5-triazine-2,4-diamine], the pIC50 was < 5.30.

On to `Nc1nc(NC2CC2)nc(N2CCN[C@@H](c3ccccc3Br)C2)n1` (stereo in doubt) [Compound 65, (S/R)-6-(3-(2-bromophenyl)piperazin-1-yl)-N2-cyclopropyl-1,3,5-triazine-2,4-diamine], for which the pIC50 was 5.30 to 6.30.

Regarding `Nc1cc(N2CCN(CCO)[C@@H](c3ccccc3Br)C2)nc(N)n1` (stereo in doubt) [Compound 66, (S/R)-2-(2-(2-bromophenyl)-4-(2,6-diaminopyrimidin-4-yl)piperazin-1-yl)ethan-1-ol], the pIC50 was < 5.30.

Turning to `Nc1cc(N2CCN(CCO)[C@H](c3ccccc3Br)C2)nc(N)n1` (stereo in doubt) [Compound 67, (R/S)-2-(2-(2-bromophenyl)-4-(2,6-diaminopyrimidin-4-yl)piperazin-1-yl)ethan-1-ol], the pIC50 was 5.30 to 6.30.

Turning to `Nc1cc(N2CCN(CCO)[C@@H](c3ccccc3Br)C2)nc(NC2CC2)n1` (stereo in doubt) [Compound 69, (S/R)-2-(4-(6-amino-2-(cyclopropylamino)pyrimidin-4-yl)-2-(2-bromophenyl)piperazin-1-yl)ethan-1-ol], the pIC50 is < 5.30.

As to `Nc1cc(N2CCN(CCO)[C@H](c3ccccc3Br)C2)nc(NC2CC2)n1` (stereo in doubt) [Compound 70, (R/S)-2-(4-(6-amino-2-(cyclopropylamino)pyrimidin-4-yl)-2-(2-bromophenyl)piperazin-1-yl)ethan-1-ol], the pIC50 is 5.30 to 6.30.

For `CNc1cc(N2CCN(C)[C@H](c3ccccc3Br)C2)nc(NC)n1` (stereo in doubt) [Compound 80, (R/S)-6-(3-(2-bromophenyl)-4-methylpiperazin-1-yl)-N2,N4-dimethylpyrimidine-2,4-diamine], the pIC50 is 5.30 to 6.30.

As to `CNc1cc(N2CCN(C)[C@@H](c3ccccc3Br)C2)nc(NC)n1` (stereo in doubt) [Compound 81, (S/R)-6-(3-(2-bromophenyl)-4-methylpiperazin-1-yl)-N2,N4-dimethylpyrimidine-2,4-diamine], the pIC50 was 5.30 to 6.30.

For the compound `CNc1cc(N2CCC[C@H](c3ccccc3Br)C2)nc(NC)n1` (stereo in doubt) [Compound 83, (R/S)-6-(3-(2-bromophenyl)piperidin-1-yl)-N2,N4-dimethylpyrimidine-2,4-diamine], the pIC50 is 5.30 to 6.30.

Take `CNc1cc(N2CCC[C@@H](c3ccccc3Br)C2)nc(NC)n1` (stereo in doubt) [Compound 84, (S/R)-6-(3-(2-bromophenyl)piperidin-1-yl)-N2,N4-dimethylpyrimidine-2,4-diamine]: the pIC50 was 5.30 to 6.30.

`CNc1cc(N2CCC[C@H](c3ccccc3Br)C2)nc(N)n1` (stereo in doubt) [Compound 86, (R/S)-6-(3-(2-bromophenyl)piperidin-1-yl)-N4-methylpyrimidine-2,4-diamine]: the pIC50 was 5.30 to 6.30.

Take `CNc1cc(N2CCC[C@@H](c3ccccc3Br)C2)nc(N)n1` (stereo in doubt) [Compound 87, (S/R)-6-(3-(2-bromophenyl)piperidin-1-yl)-N4-methylpyrimidine-2,4-diamine]: the pIC50 was > 6.30.

For `Nc1nc(NC2CC2)cc(N2CCO[C@H](c3ccccc3Br)C2)n1` (stereo in doubt) [Compound 97, (R/S)-6-(2-(2-bromophenyl)morpholino)-N4-cyclopropylpyrimidine-2,4-diamine], the pIC50 is < 5.30.

`Nc1nc(NC2CC2)cc(N2CCO[C@@H](c3ccccc3Br)C2)n1` (stereo in doubt) [Compound 98, (S/R)-6-(2-(2-bromophenyl)morpholino)-N4-cyclopropylpyrimidine-2,4-diamine]: the pIC50 was > 6.30.

Turning to `CNc1cc(N2CCN[C@@H](c3ccccc3Br)C2)nc(NC)n1` (stereo in doubt) [Compound 130, (S/R)-6-(3-(2-bromophenyl)piperazin-1-yl)-N2,N4-dimethylpyrimidine-2,4-diamine], the pIC50 was < 5.30.

Turning to `CNc1cc(N2CCN[C@H](c3ccccc3Br)C2)nc(NC)n1` (stereo in doubt) [Compound 131, (R/S)-6-(3-(2-bromophenyl)piperazin-1-yl)-N2,N4-dimethylpyrimidine-2,4-diamine], the pIC50 was > 6.30.

`Nc1nc(C2CC2)cc(N2CCN[C@H](c3ccccc3Br)C2)n1` (stereo in doubt) [Compound 132, (R/S)-4-(3-(2-bromophenyl)piperazin-1-yl)-6-cyclopropylpyrimidin-2-amine]: the pIC50 is 5.30 to 6.30.

With `Nc1nc(C2CC2)cc(N2CCN[C@@H](c3ccccc3Br)C2)n1` (stereo in doubt) [Compound 133, (S/R)-4-(3-(2-bromophenyl)piperazin-1-yl)-6-cyclopropylpyrimidin-2-amine], the pIC50 is 5.30 to 6.30.

Take `CNc1cc(N2CCN(C)[C@H](c3ccccc3Br)C2)nc(N)n1` (stereo in doubt) [Compound 154]: the pIC50 was 5.30 to 6.30.

For `CNc1cc(N2CCN(C)[C@@H](c3ccccc3Br)C2)nc(N)n1` (stereo in doubt) [Compound 155, (S/R)-6-(3-(2-bromophenyl)-4-methylpiperazin-1-yl)-N4-methylpyrimidine-2,4-diamine], the pIC50 is > 6.30.

With `CC(C)c1cc(N2CCN[C@@H](c3cnc4ccccn34)C2)c2nc[nH]c2n1` (stereo in doubt) [Compound 368, (R/S)-7-(3-(imidazo[1,2-a]pyridin-3-yl)piperazin-1-yl)-5-isopropyl-3H-imidazo[4,5-b]pyridine], the pIC50 was 5.30 to 6.30.

The record behind these values is patent US20240132464A1, “HETEROCYCLIC COMPOUNDS AS E3 LIGASE INHIBITORS” (Accutar Biotechnology Inc., priority 2022, published 2024).
